We go through 15 molecules from patent publication US4873253A, “Phenylalanine derivative and proteinase inhibitor” (Okamoto; Shosuke, priority 1987, dated 1989).

Where a name gives a salt, the structure may show the parent alone. Read-outs that look alike come from different tables or passages of the source. Some results are limits rather than exact numbers.

Series [1] concerns the target T1, bovine trypsin (Bos taurus, UniProt P00760).
T1 sequence (P00760 24-246): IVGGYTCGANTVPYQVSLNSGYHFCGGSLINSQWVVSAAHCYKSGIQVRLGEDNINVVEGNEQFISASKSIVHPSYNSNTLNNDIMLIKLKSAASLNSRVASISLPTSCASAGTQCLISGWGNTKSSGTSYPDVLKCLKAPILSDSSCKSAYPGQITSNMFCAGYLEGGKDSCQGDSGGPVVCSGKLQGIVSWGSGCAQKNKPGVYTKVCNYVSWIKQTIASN
As to the kind of experiment: Antitrypsin activity: inhibition of S-2238 decomposition. It counts as biochemical. On the procedure: Determination of inhibition activity against S-2238 decomposition
An inhibitor sample is dissolved in a 0.05 M Tris-imidazole buffer solution (pH=8.1) and 125 μl of a 1 mM S-2238 solution is added to make the total volume to 1.20 ml. The mixture is incubated at a temperature of 37° C. for 5 minutes in a constant temperature bath. To this mixture, 0.05 ml of bovine trypsin is added and the absorbance, at 405 nm, of the p-nitroaniline formed per minute is determined at a temperature of 37° C. by using the so-called initial velocity method. Thus, the concentration I50 (μmol) of a inhibitor sample, at which the absorbance is one half (i.e., 1/2) of that obtained in the absence of the inhibitor sample, is determined.

Series [2] concerns the target T2, bovine thrombin (Bos taurus, UniProt P00735).
T2 construct: a 0.2 unit/ml bovine thrombin solution
As to the kind of experiment: Antithrombin activity: inhibition of fibrin formation (fibrinogen). Format: biochemical. On the procedure:
(i) Determination of inhibition activity against fibrin formation
An inhibitor sample is dissolved in a 0.18 M borate-physiological salt buffer solution (pH= 7.4) to make the total volume to 500 μl. […] Thus, a coagulation time is determined. The inhibitor concentration I50 (μmol), at which the coagulation time obtained in the absence of the inhibitor is extended twice, is determined.

Series [3] addresses T2, bovine thrombin. As to the kind of experiment: Antithrombin activity: inhibition of S-2238 decomposition. It counts as biochemical. As to conditions: Table 2; substrate S-2238, pH 8.3, 37° C.; read-out: Thrombin S-2238 I50. The protocol:
An inhibitor sample is dissolved in a 0.05 M Tris-hydrochloric acid buffer solution (pH=8.3) to make a total volume of 400 μl. […] Thus, the concentration I50 (μmol) of the inhibitor sample at which the absorbance is one half (i.e., 1/2) of that obtained in the absence of the inhibitor sample, is determined.

The target of series [4] is T3, human plasmin (Homo sapiens, UniProt P00747). As to the kind of experiment: Antiplasmin activity: inhibition of S-2251 decomposition. The settings on record: Table 2; substrate S-2251, pH 7.4, 37° C. It counts as biochemical. The protocol: An inhibitor sample is dissolved in a 0.05 M Tris-hydrochloric acid buffer solution (pH=7.4) to make the total volume to 400 μl. […] Then, 50 μl of a 0.2 casein unit/ml human plasmin is added and the mixture is incubated at a temperature of 37° C. for 4 minutes. Thereafter, the reaction is stopped by adding 50 μl of 50% acetic acid.
T3 sequence (P00747 581-810 limits assumed): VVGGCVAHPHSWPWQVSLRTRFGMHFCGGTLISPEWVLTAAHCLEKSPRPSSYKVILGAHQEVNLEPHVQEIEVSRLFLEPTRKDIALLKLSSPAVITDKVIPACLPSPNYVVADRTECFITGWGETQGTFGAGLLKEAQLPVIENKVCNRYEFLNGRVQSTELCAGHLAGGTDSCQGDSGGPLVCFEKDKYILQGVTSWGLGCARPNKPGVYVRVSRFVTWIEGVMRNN
T3 sequence (P00747 97-580 limits assumed): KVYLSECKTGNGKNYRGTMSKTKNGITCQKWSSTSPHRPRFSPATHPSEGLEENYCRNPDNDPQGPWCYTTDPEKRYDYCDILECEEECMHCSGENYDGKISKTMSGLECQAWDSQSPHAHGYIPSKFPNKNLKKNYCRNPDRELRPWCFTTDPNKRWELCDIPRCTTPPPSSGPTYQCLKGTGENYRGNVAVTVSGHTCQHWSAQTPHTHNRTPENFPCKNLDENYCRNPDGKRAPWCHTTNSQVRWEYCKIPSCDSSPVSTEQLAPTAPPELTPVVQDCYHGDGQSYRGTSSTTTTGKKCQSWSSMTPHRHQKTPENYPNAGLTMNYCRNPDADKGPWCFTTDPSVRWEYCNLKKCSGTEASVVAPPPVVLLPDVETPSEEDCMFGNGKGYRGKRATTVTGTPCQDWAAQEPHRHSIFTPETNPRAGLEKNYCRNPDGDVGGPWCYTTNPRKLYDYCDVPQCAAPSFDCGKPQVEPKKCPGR
Thus, the concentration I50 (μmol) of the inhibitor sample, at which the absorbance is one half (i.e., 1/2) of that obtained in the absence of the inhibitor, is determined.

Series [5] addresses human plasma kallikrein (Homo sapiens, UniProt P03952). As to the kind of experiment: Anti-plasma kallikrein activity: inhibition of S-2302 decomposition. It counts as biochemical. On the procedure:
Determination of inhibition activity for S-2302 decomposition
(§1) An inhibitor sample is dissolved in a 0.05 M Tris-hydrochloric acid buffer solution (pH=7.8) to make the total volume to 400 μl. To this solution, 50 μl of a 2 mM S-2302 solution is added and the mixture is incubated at a temperature of 37° C. for 5 minutes in a constant temperature bath. Then, 50 μl of a 0.12 unit/ml human plasma kallikrein is added and the mixture is incubated at a temperature of 37° C. for 5 minutes. Thereafter, 50 μl of 50% acetic acid is added to terminate the reaction. The absorbance of the p-nitroaniline formed in the reaction mixture is measured at 405 nm. Thus, the concentration I50 (μmol) of the inhibitor sample, at which the absorbance is one half (i.e., 1/2) of that obtained in the absence of the inhibitor sample, is determined.

In series [6] the target is T3, human plasmin. The series is described as follows: Antiplasmin activity: inhibition of fibrin decomposition. It counts as biochemical. As to conditions: Table 2, pH 7.4, 37° C., read-out: Plasmin Fibrin I50 (concentration doubling fibrin dissolution time). The protocol: (i) Determination of inhibition activity for fibrin decomposition
An inhibitor sample is dissolved in a 0.18 M borate-physiological salt buffer solution (pH=7.4) to make the total volume to 600 μl. To this buffer solution, 200 μl of a 0.2% bovine fibrinogen, 100 μl of a 0.3 casein unit/ml human plasmin solution, and 100 μl of a 50 unit/ml bovine thrombin solution, all dissolved in the above-mentioned buffer, are added at a temperature of 37° C. in a constant temperature bath. Then, the dissolution time of the fibrin mass formed above is determined.

The target in series [7] is human urokinase (Homo sapiens, UniProt P00749). As to the kind of experiment: biochemical. On the procedure:
Determination of inhibition activity for S-2444 decomposition
as §1, with “solution (pH=8.8)” for “solution (pH=7.8)”, “a 1” for “a 2”, “mM S-2444” for “mM S-2302”, “a 500” for “a 0.12”, “human urokinase” for “human plasma kallikrein”

For series [8] the following is noted: background statement; cited from earlier work.
For series [9] the following is noted: background statement; cited from earlier work. The source holds these as a separate data set.
The conditions of series [10]: background statement; cited from earlier work. The source holds these as a separate data set.
Where [11] appears, read: Table 2, substrate S-2238, pH 8.1, 37° C., read-out: Trypsin S-2238 I50.
Setting [12] is: Table 2, bovine fibrinogen, pH 7.4, 37° C., read-out: Thrombin Fibrinogen I50 (concentration doubling coagulation time).
[13] abbreviates: Table 2, substrate S-2302, pH 7.8, 37° C., read-out: Plasma Kallikrein S-2302 I50.
The mark [14] stands for this setting: Table 2, substrate S-2444, pH 8.8, 37° C., read-out: Urokinase S-2444 I50.

Sequence of human plasma kallikrein (P03952 391-638 limits assumed): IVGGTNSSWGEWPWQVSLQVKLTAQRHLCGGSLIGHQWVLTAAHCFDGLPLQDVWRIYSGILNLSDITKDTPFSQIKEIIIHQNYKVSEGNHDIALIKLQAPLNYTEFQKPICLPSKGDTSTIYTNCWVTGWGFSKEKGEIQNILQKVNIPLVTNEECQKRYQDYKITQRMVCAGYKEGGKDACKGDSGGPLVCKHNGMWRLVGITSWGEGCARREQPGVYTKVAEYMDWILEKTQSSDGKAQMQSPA
Sequence of human plasma kallikrein (P03952 20-390 limits assumed): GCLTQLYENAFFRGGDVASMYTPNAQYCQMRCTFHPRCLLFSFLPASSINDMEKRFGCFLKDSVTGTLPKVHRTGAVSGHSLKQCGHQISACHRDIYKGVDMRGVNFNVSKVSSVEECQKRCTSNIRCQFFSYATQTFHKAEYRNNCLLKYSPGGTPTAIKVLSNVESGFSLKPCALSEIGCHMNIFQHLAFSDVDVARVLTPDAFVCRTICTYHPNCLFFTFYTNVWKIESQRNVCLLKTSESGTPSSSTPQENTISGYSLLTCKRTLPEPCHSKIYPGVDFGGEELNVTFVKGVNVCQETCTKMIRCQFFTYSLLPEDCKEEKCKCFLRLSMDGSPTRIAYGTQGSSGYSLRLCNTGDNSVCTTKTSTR

Consider `NC[C@H]1CC[C@H](C(=O)NC(Cc2cccc(Oc3ccccc3)c2)C(=O)Nc2ccnc(Cl)c2)CC1` (mixture of isomers) [Compound 9, N-(trans-4-aminomethylcylohexylcarbonyl)-3-phenoxy-DL-phenylalanine 4-(2-chloro)pyridylamide dihydrochloride], for which the IC50 in series [1] (setting [11]) is 2.3 µM; in [2] (setting [12]), greater than 500 µM; in [3] it was greater than 1000 µM.

Consider `CC(=O)c1ccc(NC(=O)C(Cc2cccc(Oc3ccccc3)c2)NC(=O)[C@H]2CC[C@H](CN)CC2)cc1` (mixture of isomers) [Compound 2, N-(trans-4-aminomethylcyclohexylcarbonyl)-3-phenoxy-DL-phenylalanine 4-acetylanilide hydrochloride], for which the IC50 in [4] was 19 µM; in [1] (setting [11]), 2.3 µM; in [2] (setting [12]), greater than 100 µM; in series [3], greater than 100 µM; in [5] (setting [13]), 0.38 µM; in series [6], 14 µM. Also, in [7] (setting [14]), the IC50 was found to be 110 µM.

For `NC[C@H]1CC[C@H](C(=O)NC(Cc2cccc(Oc3ccccc3)c2)C(=O)Nc2ccncc2)CC1` (mixture of isomers) [Compound 8, N-(trans-4-aminomethylcyclohexylcarbonyl)-3-phenoxy-DL-phenylalanine 4-pyridylamide dihydrochloride], the IC50 in series [4] is 65 µM; in [1] (setting [11]) it was 8.8 µM; in series [2] (setting [12]), greater than 400 µM; in series [3], greater than 100 µM; in [5] (setting [13]), 0.83 µM; in [6], 24 µM. In addition, the IC50 in series [7] (setting [14]) was 87 µM.

`NC[C@H]1CC[C@H](C(=O)NC(Cc2cccc(Oc3ccccc3)c2)C(=O)O)CC1` (mixture of isomers) [Compound 58, N-(trans-4-aminomethylcyclohexylcarbonyl)-3-phenoxy-DL-phenylalanine]: the IC50 was greater than 150 µM in series [1] (setting [11]), greater than 1000 µM in series [3], 600 µM in series [5] (setting [13]) and greater than 1000 µM in series [7] (setting [14]).

As for `NC[C@H]1CC[C@H](C(=O)NC(Cc2cccc(Oc3ccccc3)c2)C(=O)N2CCOCC2)CC1` (stereo partly drawn) [Compound 19], the IC50 in series [4] is greater than 1000 µM; in series [1] (setting [11]) it was greater than 150 µM; in series [2] (setting [12]), greater than 1000 µM; in series [5] (setting [13]), greater than 1000 µM; in series [6], greater than 1000 µM; in series [7] (setting [14]), greater than 1000 µM.

As to `COC(=O)[C@H]1CCCN1C(=O)C(Cc1cccc(Oc2ccccc2)c1)NC(=O)[C@H]1CC[C@H](CN)CC1` (stereo partly drawn) [Compound 20], the IC50 is greater than 100 µM in series [4]; greater than 150 µM in series [1] (setting [11]); greater than 1000 µM in series [2] (setting [12]); greater than 1000 µM in series [5] (setting [13]); greater than 60 µM in series [6]; greater than 1000 µM in [7] (setting [14]).

Regarding `COCCCNC(=O)C(Cc1cccc(C(=O)c2ccccc2)c1)NC(=O)[C@H]1CC[C@H](CN)CC1` (stereo partly drawn) [Compound 23], the IC50 in [4] was 750 µM; in series [1] (setting [11]), 8.2 µM; in series [2] (setting [12]), greater than 1000 µM; in [5] (setting [13]), 350 µM; in series [6], 620 µM; in series [7] (setting [14]), greater than 500 µM.

With `NC[C@H]1CC[C@H](C(=O)NC(Cc2cccc(C(=O)c3ccccc3)c2)C(=O)N2CCOCC2)CC1` (stereo partly drawn) [Compound 24], the IC50 in series [4] is greater than 1000 µM; in series [1] (setting [11]), greater than 150 µM; in [2] (setting [12]), greater than 1000 µM; in series [5] (setting [13]), greater than 1000 µM; in [6], 700 µM; in series [7] (setting [14]), greater than 1000 µM.

As for `CCOC(=O)C1CCCCN1C(=O)C(Cc1cccc(Oc2ccc(Br)cn2)c1)NC(=O)[C@H]1CC[C@H](CN)CC1` (stereo partly drawn) [Compound 26], the IC50 in series [4] was greater than 1000 µM; in series [1] (setting [11]), greater than 150 µM; in series [2] (setting [12]), greater than 1000 µM; in [5] (setting [13]), greater than 1000 µM; in series [6], 400 µM; in [7] (setting [14]), greater than 1000 µM.

With `NC[C@H]1CC[C@H](C(=O)NC(Cc2cccc(Oc3ccc(Br)cn3)c2)C(=O)N2CCOCC2)CC1` (stereo partly drawn) [Compound 27], the IC50 in series [4] was 280 µM; in [1] (setting [11]), greater than 150 µM; in series [2] (setting [12]) it was greater than 1000 µM; in [5] (setting [13]) it was greater than 1000 µM; in [6], 440 µM; in series [7] (setting [14]) it was greater than 1000 µM.

For `COCCCNC(=O)C(Cc1cccc(C(F)(F)F)c1)NC(=O)[C@H]1CC[C@H](CN)CC1` (stereo partly drawn) [Compound 28], the IC50 in [4] was greater than 1000 µM; in series [1] (setting [11]), 87 µM; in series [2] (setting [12]) it was greater than 1000 µM; in series [5] (setting [13]), greater than 1000 µM; in series [6] it was 260 µM; in series [7] (setting [14]) it was greater than 1000 µM.

For `CCOC(=O)C1CCN(C(=O)C(Cc2cccc(Oc3ccccc3)c2)NC(=O)[C@H]2CC[C@H](CNC(=N)N)CC2)CC1` (stereo partly drawn) [Compound 31], the IC50 in series [4] is 160 µM; in series [1] (setting [11]), greater than 150 µM; in [2] (setting [12]), greater than 100 µM; in series [5] (setting [13]), greater than 100 µM; in [6], greater than 100 µM; in series [7] (setting [14]), greater than 500 µM.

As to `CC(=O)c1ccc(NC(=O)C(Cc2cccc(Oc3ccccc3)c2)NC(=O)c2ccc(NC(=N)N)cc2)cc1` (stereo not drawn) [Compound 32], the IC50 was 120 µM in series [4]; 15 µM in series [1] (setting [11]); greater than 25 µM in [2] (setting [12]); 2.2 µM in series [5] (setting [13]); greater than 25 µM in series [6]; 100 µM in [7] (setting [14]).

`CCOC(=O)c1cccc(NC(=O)C(Cc2cccc(Oc3ccccc3)c2)NC(=O)c2ccc(NC(=N)N)cc2)c1` (stereo not drawn) [Compound 33]: the IC50 is greater than 100 µM in series [4]; 42 µM in [1] (setting [11]); greater than 25 µM in series [2]; 4.5 µM in [5] (setting [13]); greater than 25 µM in series [6]; greater than 200 µM in series [7] (setting [14]).

For `N=C(N)c1ccc2cc(OC(=O)c3ccc(N=C(N)N)cc3)ccc2c1` [FUT-175, reference compound], the IC50 in series [1] worked out at 0.27 µM; in series [5] it was 0.076 µM; in series [7], 0.013 µM. Besides, the “half life in vivo” value in series [8] is recorded as “short”. Also, the hypotensive action entry in series [9] is reported as “large”. Moreover, the LD50 value entry in series [10] is given as “small”.
